Data published in paper PMC12024577, “Synthesis and Antiproliferative Effects of Grossheimin-Derived Aminoanalogues” (Biomolecules, 2025).
Read-outs that look alike come from different tables or passages of the source.

How the values were obtained:
[1] = tested on: Colo205 (doxorubicin-sensitive human colon adenocarcinoma cell line); assay: MTT assay, cytotoxic effect on Colo205; assay type: cell-based; conditions: COLO 205, 24 h incubation
Procedure: (§1) The doxorubicin-sensitive Colo205 (ATCC-CCL-222) and the doxorubicin-resistant ABCB1- and LRP-expressing Colo320/MDR-LRP (ATCC-CCL-220.1) human colon adenocarcinoma cell lines were obtained from LGC Promochem in Teddington, UK. For culturing, the RPMI 1640 medium was applied and was supplemented with a 10% heat-inactivated foetal bovine serum (FBS), 2 mM L-glutamine, 1 mM Na-pyruvate and 10 mM HEPES along with nystatin and gentamicin.
(§2) The anticancer activity of the compounds was tested in 96-well flat-bottomed microtiter plates. In this assay, the two-fold serial dilutions of the compounds (concentration range: 100–0.19 μM) were made in a 100 μL RPMI 1640 medium. Next, 1 × 10^4 of human colonic adenocarcinoma cells (Colo205 or Colo320) in a 100 μL RPMI 1640 medium were added to each well except for the medium control wells. The starting concentration of the solvent DMSO in the plate was 2% v/v. The samples were incubated at 37 °C for 24 h. At the end of the incubation, 20 μL of an MTT (thiazolyl blue tetrazolium bromide) solution (from a 5 mg/mL stock solution) was pipetted to each well. After incubation at 37 °C for 4 h, 100 μL of a sodium dodecyl sulfate (SDS) solution (10% SDS in 0.01 M HCl) was pipetted to each well, and the plates were kept at 37 °C overnight. The growth of the cells was determined by measuring the optical density (OD) at 540 nm (refering to 630 nm) with a Multiscan EX ELISA reader (Thermo Labsystems, Cheshire, WA, USA). The inhibition of cell growth was calculated as IC50 values, defined as the inhibitory dose that reduces the growth of the cells exposed to the tested compounds by 50%. The IC50 values and the SD of the triplicate experiments were determined using GraphPad Prism software version 5.00 for Windows with a non-linear regression curve fit (GraphPad Software, San Diego, CA, USA; www.graphpad.com). Doxorubicin (from a 2 mg/mL stock solution, Teva Pharmaceuticals, Singapore) served as a positive control.
(§3) Since several sesquiterpene lactone-based aminoadducts exerted a significant cytotoxic action on different human cancer cell lines, the in vitro cytotoxic activities of the prepared grossheimin-based amino analogues were also tested on human colon adenocarcinoma lines, including Colo205 and Colo320 by MTT assay.

[2] = tested on: Colo320/MDR-LRP (doxorubicin-resistant ABCB1- and LRP-expressing human colon adenocarcinoma cell line); assay: MTT assay, cytotoxic effect on Colo320; assay type: cell-based; conditions: COLO 320, 24 h incubation
Procedure: as §1, §2, §3

CDD-19Lu fibroblasts = assay: Cytotoxic effect on fibroblasts; assay type: cell-based
Procedure: as §2
3. Cytotoxic effects of grossheimin-based aminoanalogues
Table S1. Cytotoxic effects of grossheimin-based aminoanalogues on colon adenocarcinoma cell lines and
CDD-19Lu fibroblasts. Doxorubicin (DOX) was applied as a positive control . n.d: not determined. Starting
concentration of grossheimin-based aminoanalogs and DOX in the assay with CDD-19Lu fibroblasts is 100 and […]

MDA-MB-231 = tested on: MDA-MB-231; set-up: method as in doi:10.14188/j.ajsh.2023.03.009; conditions: cited from earlier work
[3] = tested on: colorectal cancer HCT-116 cell lines; set-up: method as in doi:10.14188/j.ajsh.2023.03.009; conditions: cited from earlier work
[4] = tested on: human colon adenocarcinoma lines, including Colo205 and Colo320; assay: MTT assay, colon adenocarcinoma lines; assay type: cell-based; conditions: text summary over Colo205 and Colo320, read-out: IC50 against colon adenocarcinoma cancers / malignant cell lines
Procedure: as §1
The anticancer activity of the compounds was tested in 96-well flat-bottomed microtiter plates. In this assay, the two-fold serial dilutions of the compounds (concentration range: 100–0.19 μM) were made in a 100 μL RPMI 1640 medium. Next, 1 × 10^4 of human colonic adenocarcinoma cells (Colo205 or Colo320) in a 100 μL RPMI 1640 medium were added to each well except for the medium control wells. The starting concentration of the solvent DMSO in the plate was 2% v/v. The samples were incubated at 37 °C for 24 h. […] The growth of the cells was determined by measuring the optical density (OD) at 540 nm (refering to 630 nm) with a Multiscan EX ELISA reader (Thermo Labsystems, Cheshire, WA, USA). […] The IC50 values and the SD of the triplicate experiments were determined using GraphPad Prism software version 5.00 for Windows with a non-linear regression curve fit (GraphPad Software, San Diego, CA, USA; www.graphpad.com). […]

[5] = Fibroblast, fibroblasts, Table 2, read-out: IC50 CDD-19Lu
[6] = Homo sapiens, CCD 19Lu, fibroblasts, Table S1, starting concentration 100 (analogues) and 8.62 (DOX), read-out: IC50 CCD-19Lu

Structure (SMILES)	IC50 ([1]; Table S1) [µM]	IC50 ([2]; Table S1) [µM]	IC50 (CDD-19Lu fibroblasts; [6]) [µM]	further results
COc1cccc2c1C(=O)c1c(O)c3c(c(O)c1C2=O)C[C@@](O)(C(=O)CO)C[C@@H]3O[C@H]1C[C@H](N)[C@H](O)[C@H](C)O1 [DOX, Doxorubicin, reference compound]				IC50 ([1]; Table 2): 3.21 ± 0.03 µM; IC50 ([2]; Table 2): 4.36 ± 0.08 µM; IC50 (CDD-19Lu fibroblasts; [5]): > 8.62 µM
C=C1C[C@H](O)[C@@H]2[C@H](OC(=O)[C@H]2C)[C@H]2[C@H](C)[C@H](O)C[C@@H]12 [Compound 3]	> 100	> 100	> 100	
C=C1C(=O)O[C@H]2[C@H]1[C@@H](O)CC(=C)[C@@H]1C[C@H](O)[C@@H](C)[C@H]21 [Compound 12]				IC50 ([1]; Table 2): 63.8 ± 1.32 µM; IC50 ([2]; Table 2): 53.6 ± 1.6 µM; IC50 (CDD-19Lu fibroblasts; [5]): > 100 µM
C=C1C[C@H](O)[C@@H]2[C@H](OC(=O)[C@H]2CSCc2ccccc2)[C@H]2[C@H](C)[C@H](O)C[C@@H]12 [Compound 9]	> 100	> 100	> 100	
C=C1C(=O)O[C@H]2[C@H]1[C@@H](O)CC(=C)[C@@H]1CC(=O)[C@@H](C)[C@H]21 [Compound 1, Grossheimin]				IC50 ([1]; Table 2): 23.3 ± 2.05 µM; IC50 ([2]; Table 2): 27.9 ± 2 µM; IC50 (CDD-19Lu fibroblasts; Fibroblast, read-out: IC50 CDD-19Lu): > 100 µM; IC50 (MDA-MB-231): 16.9 µM; IC50 [3]: 30.9 µM
C=C1C(=O)O[C@H]2[C@H]1[C@@H](OC(C)=O)CC(=C)[C@@H]1C[C@H](OC(C)=O)[C@@H](C)[C@H]21 [Compound 13]				IC50 ([1]; Table 2): 8.21 ± 0.51 µM; IC50 ([2]; Table 2): 6.98 ± 0.29 µM; IC50 (CDD-19Lu fibroblasts; [5]): 29.1 ± 0.46 µM; IC50 [4]: ~8 µM
C=C1C[C@H](OC(C)=O)[C@@H]2[C@H](OC(=O)[C@H]2C)[C@H]2[C@H](C)[C@@H](OC(C)=O)C[C@@H]12 [Compound 4]	> 100	> 100	> 100	
C=C1C[C@H](O)[C@@H]2[C@H](OC(=O)[C@H]2CNC=O)[C@H]2[C@H](C)C(=O)C[C@@H]12 [Compound 7]	> 100	> 100		
C=C1C[C@H](O)[C@@H]2[C@H](OC(=O)[C@H]2COC)[C@H]2[C@H](C)C(=O)C[C@@H]12 [Compound 10]	> 100	> 100		
C=C1C[C@H](O)[C@@H]2[C@H](OC(=O)[C@H]2CNCc2ccccc2)[C@H]2[C@H](C)[C@@H](O)C[C@@H]12 [Compound 6]	> 100	> 100	> 100	
C=C1C[C@H](O)[C@@H]2[C@H](OC(=O)[C@H]2COC)[C@H]2[C@H](C)[C@@H](O)C[C@@H]12 [Compound 15]	> 100	> 100		
C=C1C[C@H](O)[C@@H]2[C@H](OC(=O)[C@H]2Cn2cnc3ccccc32)[C@H]2[C@H](C)C(=O)C[C@@H]12 [Compound 11f]	> 100	> 100	> 100	
C=C1C[C@H](O)[C@@H]2[C@H](OC(=O)[C@H]2Cn2cnc3ccccc32)[C@H]2[C@H](C)[C@@H](O)C[C@@H]12 [Compound 16a]	> 100	> 100	> 100	
C=C1C[C@H](O)[C@@H]2[C@H](OC(=O)[C@H]2CSCc2ccccc2)[C@H]2[C@H](C)C(=O)C[C@@H]12 [Compound 8]	> 100	> 100	> 100	
C=C1C[C@H](O)[C@@H]2[C@H](OC(=O)[C@H]2CNCc2ccccc2)[C@H]2[C@H](C)C(=O)C[C@@H]12 [Compound 5]	> 100	> 100	> 100	
C=C1C[C@H](O)[C@@H]2[C@H](OC(=O)[C@H]2CNC=O)[C@H]2[C@H](C)[C@@H](O)C[C@@H]12 [Compound 14]	> 100	> 100		
C=C1C(=O)O[C@H]2[C@H]1[C@@H](OC(C)=O)CC(=C)[C@@H]1CC(=O)[C@@H](C)[C@H]21 [Compound 2]				IC50 ([1]; Table 2): 8.21 ± 0.51 µM; IC50 ([2]; Table 2): 9.44 ± 0.41 µM; IC50 (CDD-19Lu fibroblasts; [5]): > 100 µM; IC50 [4]: ~9 µM
